The source of these data is US20080261994A1, “CYCLOPROPANE COMPOUNDS AND PHARMACEUTICAL USE THEREOF” (Japan Tobacco Inc., priority 2003, published 2008).

Holding throughout (format): biochemical
For one experiment, the target named is T1, MMP-1 (Homo sapiens, UniProt P03956).
T1 sequence (P03956 100-469): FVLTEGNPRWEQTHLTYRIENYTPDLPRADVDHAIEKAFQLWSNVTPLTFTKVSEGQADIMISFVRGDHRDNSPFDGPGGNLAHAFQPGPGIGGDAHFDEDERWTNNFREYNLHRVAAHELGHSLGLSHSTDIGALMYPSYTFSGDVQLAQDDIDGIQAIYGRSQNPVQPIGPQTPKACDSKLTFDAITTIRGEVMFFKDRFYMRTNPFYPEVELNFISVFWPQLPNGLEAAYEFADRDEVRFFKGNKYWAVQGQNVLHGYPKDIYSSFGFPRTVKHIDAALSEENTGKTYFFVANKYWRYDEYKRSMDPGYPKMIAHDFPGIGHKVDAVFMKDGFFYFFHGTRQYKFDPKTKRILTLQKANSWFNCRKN
The experiment can be described thus: MMP-1 inhibitory action (Type I collagen Activity Measurement kit, FITC-labeled collagen type I). The following applies: MMP-1 inhibitory action, FITC-labeled collagen type I, 37° C. for 3 hr; read-out: IC50 MMP1 (Experimental Example 2).

The target of a further experiment is T2, aggrecanase-1 (Homo sapiens, UniProt O75173).
T2 sequence (O75173 213-837): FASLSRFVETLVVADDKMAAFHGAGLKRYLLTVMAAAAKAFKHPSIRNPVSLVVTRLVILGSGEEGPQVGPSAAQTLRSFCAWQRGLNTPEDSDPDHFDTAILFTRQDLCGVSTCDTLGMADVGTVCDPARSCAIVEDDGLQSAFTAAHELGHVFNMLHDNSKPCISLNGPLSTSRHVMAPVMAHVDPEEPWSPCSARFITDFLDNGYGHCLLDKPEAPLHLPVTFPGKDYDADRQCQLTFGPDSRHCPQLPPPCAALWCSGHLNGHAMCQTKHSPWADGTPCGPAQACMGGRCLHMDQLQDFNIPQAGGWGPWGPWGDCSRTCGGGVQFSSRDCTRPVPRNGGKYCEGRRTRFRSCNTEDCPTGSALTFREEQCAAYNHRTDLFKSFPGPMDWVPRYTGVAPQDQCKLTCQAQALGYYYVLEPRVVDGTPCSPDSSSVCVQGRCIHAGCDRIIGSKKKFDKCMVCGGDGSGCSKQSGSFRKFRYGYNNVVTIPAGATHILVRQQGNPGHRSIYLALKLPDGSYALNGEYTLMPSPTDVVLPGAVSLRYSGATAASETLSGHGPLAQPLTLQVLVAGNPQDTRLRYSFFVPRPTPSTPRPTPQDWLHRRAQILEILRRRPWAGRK
The experiment can be described thus: Aggrecanase-1 inhibitory action (Particle Assay, GAG release from aggrecan-containing polyacrylamide particles). The following applies: aggrecanase-1 inhibitory action; read-out: IC50 AG1 (Experimental Example 1). The method in brief: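 Enzyme and compound incubated with aggrecan-containing polyacrylamide particles in Tris-HCl buffer at 37° C for 15 h. Released GAG in supernatant measured with 1,9-dimethylmethylene blue at 595 nm against chondroitin sulfate standard; % inhibition from enzyme-free and inhibitor-free wells, reported as TC50 (μM).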

Another experiment has as its target T3, Recombinant Human MMP-13 (Homo sapiens, UniProt P45452).
T3 construct: purchased R&D systems 511-MM
The experiment can be described thus: MMP-13 inhibitory activity (MMP-13 specific fluorescent substrate with quencher). The following applies: Recombinant Human MMP-13, fluorescent substrate, 25° C. for 1 h; read-out: IC50 MMP13 (Experimental Example 3). The method, then:
Inhibitory activity of tested compounds on MMP-13 was measured using MMP-13 specific fluorescent substrate with quencher.
The enzyme and substrate were diluted with Tris-HCl buffer, and test compounds were diluted with dimethyl sulfoxide (DMSO).
Test compounds and the enzyme (Recombinant Human MMP-13: R&D systems, 511-MM) were added into 96-well plate. The reaction was initiated by adding synthetic substrate (7-MCA-Pro-CHA-Gly-NVal-His-Ala-DPA: enzyme systems products, Met-06) into the plate. After incubation at 25° C. for 1 h, the reaction was terminated by addition of reaction terminating solution containing acetic acid. Fluorescence intensity of each well was measured (Ex: 325 nm, […] 405 nm) and the MMP-13 inhibitory activity of the compound in each well (%) was calculated based on the values of enzyme-free well and inhibitor-free well. The inhibitory activity of the compound was represented as IC50 (μM).

Counter-ions that a name gives are not always drawn.

The IC50 is the concentration at which inhibition is half-maximal. `O=C(O)[C@]1(NS(=O)(=O)c2ccc3c(c2)Cc2cc(Br)ccc2-3)C[C@@H]1c1ccccc1` [Example 1-91]: the IC50 at MMP-1 was at least 1 µM; on aggrecanase-1, below 0.1 µM; on Recombinant Human MMP-13, below 0.1 µM.
`O=C(O)C1(NS(=O)(=O)c2ccc3c(c2)Cc2cc(Cl)ccc2-3)CC1c1ccccc1` (stereo not drawn) [Example 1-94]: the values for the IC50 at MMP-1, on aggrecanase-1 and on Recombinant Human MMP-13 were at least 1 µM, below 0.1 µM and below 0.1 µM, respectively.
For the molecule `O=C(O)C1(NS(=O)(=O)c2ccc(-c3ccc(Cl)cc3)s2)CC1c1ccccc1O` (stereo not drawn) [Example 1-102], the IC50 is at least 1 µM at MMP-1, below 0.1 µM at aggrecanase-1 and below 1 µM on Recombinant Human MMP-13.
The like results for `CN1CCN(Cc2cccc(C3CC3(NS(=O)(=O)c3ccc(-c4ccc(Cl)cc4)s3)C(=O)O)c2)CC1` (stereo not drawn) [Example 1-103] were, in that order, at least 10 µM, below 1 µM and below 1 µM.
`O=C(O)C1(NS(=O)(=O)c2ccc(-c3ccc(Cl)cc3)s2)CC1c1cccc(OCc2cccnc2)c1` (stereo not drawn) [Example 1-107]: the IC50 on MMP-1 was at least 1 µM; on aggrecanase-1, below 0.1 µM; at Recombinant Human MMP-13, below 0.1 µM.
`O=C(O)C1(NS(=O)(=O)c2ccc(-c3ccc(Cl)cc3)s2)CC1c1cccc(OCc2ccccn2)c1` (stereo not drawn) [Example 1-108]: the IC50 on MMP-1 is at least 1 µM; at aggrecanase-1 it was below 0.1 µM; at Recombinant Human MMP-13 it was below 0.1 µM.
With `O=C(O)[C@@]1(NS(=O)(=O)c2ccc3c(c2)Cc2cc(Br)ccc2-3)C[C@H]1c1ccccc1` [Example 1-109], the IC50 on MMP-1 is at least 10 µM; at aggrecanase-1, below 1 µM; at Recombinant Human MMP-13, below 1 µM.
Turning to `O=C(O)c1cccc(C2CC2(NS(=O)(=O)c2ccc(-c3ccc(Cl)cc3)s2)C(=O)O)c1` (stereo not drawn) [Example 1-113], the half-maximal inhibitory concentration (IC50) at MMP-1 was at least 1 µM; at aggrecanase-1, below 0.1 µM; on Recombinant Human MMP-13, below 1 µM.
For `O=C(O)COc1cccc(C2CC2(NS(=O)(=O)c2ccc(-c3ccc(Cl)cc3)cc2)C(=O)O)c1` (stereo not drawn) [Example 1-119], in that order: at least 1 µM, below 0.1 µM and below 0.1 µM.
For `O=C(O)C1(NS(=O)(=O)c2ccc(-c3cc(C(F)(F)F)on3)s2)CC1c1ccccc1` (stereo not drawn) [Example 1-121], in that order: at least 1 µM, below 0.1 µM and below 0.1 µM.
The like results for `O=C(O)C1(NS(=O)(=O)c2ccc3c(c2)oc2cc(Cl)ccc23)CC1c1ccccc1` (stereo not drawn) [Example 1-122] were, in that order, at least 1 µM, below 0.1 µM and below 0.1 µM.
In the case of `O=C(O)C1(NS(=O)(=O)c2ccc(-c3ccc(Cl)cc3)s2)CC1c1cccc([N+](=O)[O-])c1` (stereo not drawn) [Example 1-127], the IC50 at MMP-1 is at least 1 µM; at aggrecanase-1 it was below 0.1 µM; on Recombinant Human MMP-13, below 1 µM.
The like results for `Nc1cccc(C2CC2(NS(=O)(=O)c2ccc(-c3ccc(Cl)cc3)s2)C(=O)O)c1` (stereo not drawn) [Example 1-128] were, in that order, at least 1 µM, below 0.1 µM and below 1 µM.
The like results for `O=C(O)C1(NS(=O)(=O)c2ccc(-c3ccc(Cl)cc3)s2)CC1c1cccc(NCc2cccnc2)c1` (stereo not drawn) [Example 1-129] were, in that order, at least 1 µM, below 0.1 µM and below 0.1 µM.
For `CS(=O)(=O)Nc1cccc(C2CC2(NS(=O)(=O)c2ccc(-c3ccc(Cl)cc3)s2)C(=O)O)c1` (stereo not drawn) [Example 1-130], in that order: at least 1 µM, below 0.1 µM and below 0.1 µM.
Regarding `O=C(O)[C@]1(NS(=O)(=O)c2ccc(-c3ccc(Cl)cn3)s2)C[C@@H]1c1ccccc1` [Example 1-131], the IC50 at MMP-1 is at least 1 µM; on aggrecanase-1, below 0.1 µM; at Recombinant Human MMP-13 it was below 0.1 µM.
`O=C(O)C1(NS(=O)(=O)c2ccc(-c3ccc(Cl)cc3)s2)CC1c1cccc(NS(=O)(=O)C(F)(F)F)c1` (stereo not drawn) [Example 1-132]: the IC50 on MMP-1 is at least 1 µM; at aggrecanase-1 it was below 0.1 µM; at Recombinant Human MMP-13, below 0.1 µM.
Turning to `CN(C)c1cccc(C2CC2(NS(=O)(=O)c2ccc(-c3ccc(Cl)cc3)s2)C(=O)O)c1` (stereo not drawn) [Example 1-133], the figures for the IC50 at MMP-1, on aggrecanase-1 and at Recombinant Human MMP-13 were at least 1 µM, below 0.1 µM and below 0.1 µM, respectively.
Turning to `O=C(O)C1(NS(=O)(=O)c2ccc(-c3ccc(Cl)cc3)s2)CC1c1cccc(CO)c1` (stereo not drawn) [Example 1-134], the IC50 on MMP-1 is at least 1 µM; at aggrecanase-1, below 0.1 µM; on Recombinant Human MMP-13 it was below 0.1 µM.
Regarding `O=C(O)C1(NS(=O)(=O)c2ccc(-c3ccc(Cl)cc3)s2)CC1c1cccc(NS(=O)(=O)c2cccnc2)c1` (stereo not drawn) [Example 1-136], the IC50 was at least 1 µM on MMP-1, below 0.1 µM at aggrecanase-1 and below 0.1 µM at Recombinant Human MMP-13.
For `O=C(O)C1(NS(=O)(=O)c2ccc(-c3ccc(Cl)cc3)s2)CC1c1ccccc1OCCO` (stereo not drawn) [Example 1-138], the IC50 at MMP-1 was at least 1 µM; on aggrecanase-1 it was below 0.1 µM; at Recombinant Human MMP-13 it was below 1 µM.
Turning to `O=C(O)COc1ccccc1C1CC1(NS(=O)(=O)c1ccc(-c2ccc(Cl)cc2)s1)C(=O)O` (stereo not drawn) [Example 1-139], the IC50 on MMP-1 was at least 10 µM; on aggrecanase-1 it was below 0.1 µM; on Recombinant Human MMP-13, below 1 µM.
The like results for `CC(C)(C)OC(=O)N1CC=C(c2ccc(S(=O)(=O)N[C@@]3(C(=O)O)C[C@@H]3c3ccccc3)s2)CC1` [Example 2, 4-[5-((1S,2R)-1-carboxy-2-phenyl-cyclopropanesulfamoyl)-thiophene-2-yl]-3,6-dihydro-2H-pyridin-1-carboxylic acid t-butyl ester] were, in that order, at least 10 µM, at least 1 µM and at least 10 µM.
The like results for `O=C(O)[C@]1(NS(=O)(=O)c2ccc(C3=CCNCC3)s2)C[C@@H]1c1ccccc1` [Example 2-2, (1S,2R)-2-phenyl-1-[5-(1,2,3,6-tetrahydro-pyridin-4-yl)-thiophene-2-sulfonylamino]-cyclopropanecarboxylic acid hydrochloride] were, in that order, at least 10 µM, at least 10 µM and at least 10 µM.
Take `COC(=O)N1CC=C(c2ccc(S(=O)(=O)N[C@@]3(C(=O)O)C[C@@H]3c3ccccc3)s2)CC1` [Example 2-3, 4-[5-((1S,2R)-1-carboxy-2-phenyl-cyclopropanesulfamoyl)-thiophene-2-yl]-3,6-dihydro-2H-pyridin-1-carboxylic acid methyl ester]: the IC50 on MMP-1 was at least 10 µM; on aggrecanase-1 it was at least 1 µM; at Recombinant Human MMP-13 it was at least 1 µM.
As to `C#Cc1cnn(-c2ccc(S(=O)(=O)N[C@@]3(C(=O)O)[C@H](C)[C@@H]3c3ccccc3)s2)c1` [Example 2-4, (1S,2R,3R)-1-[5-(4-ethynyl-pyrazole-1-yl)-thiophene-2-sulfonylamino]-2-methyl-3-phenyl-cyclopropanecarboxylic acid], the IC50 on MMP-1 was below 1 µM; at aggrecanase-1, below 0.1 µM; at Recombinant Human MMP-13 it was below 0.1 µM.
With `C[C@@H]1[C@H](c2ccccc2)[C@]1(NS(=O)(=O)N1CCN(c2ccc(C(F)(F)F)cn2)CC1)C(=O)O` [Example 2-5, (1S,2R,3R)-2-methyl-3-phenyl-1-[4-(5-trifluoromethyl-pyridin-2-yl)-piperazine-1-sulfonylamino]-cyclopropanecarboxylic acid], the IC50 is at least 1 µM on MMP-1, below 1 µM at aggrecanase-1 and below 0.1 µM on Recombinant Human MMP-13.
